Laboratory results taken from patent US8541584B2, “3-(1,2,3-triazol-4-yl) pyrrolo [2,3-b] pyridine derivatives” (Merck Patent GmbH, priority 2009, dated 2013).

target: T1, TANK binding kinase (TBK1) (Homo sapiens, UniProt Q9UHD2); assay: TBK1 kinase test (384-well flashplate); type: biochemical; settings: 0.6 nM TBK1, 10 μM ATP, 30° C., 120 min
T1 sequence (Q9UHD2 1-729): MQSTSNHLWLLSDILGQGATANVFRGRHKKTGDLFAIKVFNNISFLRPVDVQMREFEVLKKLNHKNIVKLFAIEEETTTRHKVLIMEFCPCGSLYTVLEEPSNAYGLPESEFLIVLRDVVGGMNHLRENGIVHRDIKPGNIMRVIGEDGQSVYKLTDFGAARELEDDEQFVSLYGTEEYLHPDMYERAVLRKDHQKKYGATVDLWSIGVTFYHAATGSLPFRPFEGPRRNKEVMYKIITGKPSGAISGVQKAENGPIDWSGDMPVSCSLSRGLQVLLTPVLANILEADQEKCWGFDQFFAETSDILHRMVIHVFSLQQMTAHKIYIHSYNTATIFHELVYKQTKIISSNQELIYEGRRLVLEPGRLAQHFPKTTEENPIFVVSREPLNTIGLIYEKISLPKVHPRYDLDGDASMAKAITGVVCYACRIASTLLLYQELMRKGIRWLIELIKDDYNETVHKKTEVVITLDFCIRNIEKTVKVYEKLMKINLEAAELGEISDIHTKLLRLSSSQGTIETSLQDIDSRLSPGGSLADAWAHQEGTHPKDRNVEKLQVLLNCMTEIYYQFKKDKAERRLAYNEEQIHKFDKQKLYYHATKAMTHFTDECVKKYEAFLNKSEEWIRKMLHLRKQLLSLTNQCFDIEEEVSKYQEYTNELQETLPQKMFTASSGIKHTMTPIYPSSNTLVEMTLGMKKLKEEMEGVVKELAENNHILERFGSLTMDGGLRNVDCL
Experimental: The kinase assay is performed as 384-well flashplate assay. 0.6 nM TANK binding kinase (TBK1), 800 nM biotinylated MELK-derived peptide (biotin-Ah-Ah-[…]) and 10 μM ATP (with 0.25 μCi of ^33P-ATP/well) are incubated in a total volume of 50 μl (10 mM MOPS, 10 mM magnesium acetate, 0.1 mM EGTA, 1 mM DTT, 0.02% of Brij35, 0.1% of BSA, pH 7.5) with or without test substance at 30° C. for 120 min. The reaction is stopped using 25 μl of 200 mM EDTA solution, filtered off with suction after 30 min at room temperature, and the wells are washed 3 times with 100 μl of 0.9% NaCl solution. The non-specific proportion of the kinase reaction (blank) is determined using 100 nM staurosporine. Radioactivity is measured in the Topcount. IC50 values are calculated using RS1.

Row | IC50 [nM] | Structure (SMILES)
1 | 0.5 to 1000 | CC(c1ccccc1C(F)(F)F)n1cc(-c2c[nH]c3ncc(-c4cnn(C)c4)cc23)nn1 (stereo not drawn) [Compound A20, 5-(1-Methyl-1H-pyrazol-4-yl)-3-{1-[1-(2-trifluoromethylphenyl)ethyl]-1H-1,2,3-triazol-4-yl}-1H-pyrrolo[2,3-b]pyridine]
2 | 0.5 to 1000 | Cn1cc(-c2cnc3[nH]cc(-c4cn(Cc5ccc6ncccc6c5)nn4)c3c2)cn1 [Compound A29, 6-{4-[5-(1-Methyl-1H-pyrazol-4-yl)-1H-pyrrolo[2,3-b]pyridin-3-yl]-1,2,3-triazol-1-ylmethyl}quinoline]
3 | 0.5 to 1000 | Cn1cc(-c2cnc3[nH]cc(-c4cn(Cc5cccc(F)c5F)nn4)c3c2)cn1 [Compound A25, 3-[1-(2,3-Difluorobenzyl)-1H-1,2,3-triazol-4-yl]-5-(1-methyl-1H-pyrazol-4-yl)-1H-pyrrolo-[2,3-b]pyridine]

Second part, the molecule before the results:

Row | Structure (SMILES) | IC50 [nM]
4 | Cn1cc(-c2cnc3[nH]cc(-c4cn(Cc5ccccc5F)nn4)c3c2)cn1 [Compound A17, 3-[1-(2-Fluorobenzyl)-1H-1,2,3-triazol-4-yl]-5-(1-methyl-1H-pyrazol-4-yl)-1H-pyrrolo-[2,3-b]pyridine] | 0.5 to 1000
5 | Cn1cc(-c2cnc3[nH]cc(-c4cn(Cc5ccncc5)nn4)c3c2)cn1 [Compound A9, 5-(1-Methyl-1H-pyrazol-4-yl)-3-(1-pyridin-4-ylmethyl-1H-1,2,3-triazol-4-yl)-1H-pyrrolo-[2,3-b]pyridine] | 0.5 to 1000
6 | Cc1cccc(Cn2cc(-c3c[nH]c4ncc(-c5cnn(C)c5)cc34)nn2)c1 [Compound A7, 3-[1-(3-Methylbenzyl)-1H-1,2,3-triazol-4-yl]-5-(1-methyl-1H-pyrazol-4-yl)-1H-pyrrolo[2,3-b]pyridine] | 0.5 to 1000
